# Results taken from patent US12678412B2, “Substituted tolans for the modulation of microbial colonization” (BioMendics, LLC, priority 2017, dated 2026).
# Assays:
# wild type E. Coli = conditions: previous data; cited from earlier work
# S. typhimurium TA100 = assay: Dose range finding colony forming assay, strain TA100 with metabolic activation; type: cell-based; conditions: positive control, 2 μg/plate
# Method: (§1) A series of dose range finding assays were performed with five bacterial strains, S. typhimurium TA97a, TA98, TA100, TA1535, and E. coli WP2 uvrA pKM101, with and without metabolic activation at three plates per dose. The following doses, along with positive and negative controls, were tested: 5000, 2500, 1250, 500, 250, 125, 50, 20, 10, 5, 2, 1, and 0.2 μg/plate. The plates were evaluated for toxicity (a decrease in plate counts with increasing dose and/or a visible thinning of the background lawn) and for precipitation of the test article. Metabolic activation was included in some samples by adding phenobarbital/benzoflavone-induced rat liver S9 fractions with cofactors (S9 mix). Prior to use, freshly thawed aliquots of rat liver S9 were mixed with a sterile cofactor mix. The S9 mix contains a 10% liver S9 concentration and was refrigerated or stored on ice until used. When testing with metabolic activation, the S9 mix was used in the assay tube in place of phosphate buffer.
# (§2) Dosing formulations were prepared to deliver all doses in a constant volume of 0.1 mL. The highest dose was prepared from test article weighed to the nearest 0.1 mg and the remaining formulations were prepared as serial dilutions from the high dose stock formulation. Using a permanent marking pen or computer printed labels, assay plates were labeled with the project and study numbers and the date. Assay plates and tubes were labeled with a unique identifier, which was used to match the assay tubes with the properly identified minimal glucose agar plate.
# (§3) The pre-incubation method was used to perform the assay. The assay mix consisted of 0.1 mL of the test article formulation or control article, 0.5 mL S9 mix or phosphate buffer, and 0.1 mL of bacterial culture. Assay tubes were incubated at 37±1° C. with gentle agitation for 20±1 minutes, then 2.0-2.5 mL top agar was added to the assay mix and the top agar/assay mix poured onto appropriately labeled minimal glucose agar plates. Once the top agar hardened, the plates were inverted and incubated at 37±1° C. for 48±2 hours. Plates were counted with the Sorcerer (v. 2.2)/Ames Study Manager (v. 1.2.4) system from Perceptive Instruments (Suffolk, UK). With this system, plate counts are automatically transferred from the plate imager (Sorcerer) to a Study Manager spreadsheet, and the data are stored in a secure manner on an Oracle database. Some plates were hand counted, e.g., if sample precipitate interferes with automatic counting or toxicity results in the formation of microcolonies, in which case, counts for these plates were entered into the spreadsheet manually. Plates were scored also with the extent of colonization by a post fix code.
# [1] = system: NEB 5 α competent E. coli; assay: Bacterial colony forming assay (Examples 6-9); type: cell-based; conditions: alcohol gel
# Method: NEB 5 α competent E. coli were retrieved from frozen cultures and grown overnight in a bacterial incubator at 37° C. Proliferating cultures of bacteria were used in a colony forming assay by adding 25 μL of bacteria from the overnight culture to 10 mL of fresh Lysogeny Broth (LB; Bertani, G. (2004). “Lysogeny at mid-twentieth century: P1, P2, and other experimental systems”. Journal of Bacteriology. 186 (3): 595-600. PMC 321500. PMID 14729683. doi:10.1128/JR.186.3.595-600.2004). 1 mL of this diluted bacteria was added to various dilutions of formulations of substituted tolan compounds as described in Table C, below and in charts of the corresponding Figures.
# One mL of each formulation was mixed with 1 mL of diluted bacteria in LB and put onto agar plates. Alcohol gels were allowed to dry and incubated overnight for 16-18 hrs. Control plates consisted of 2 mL alcohol gel plus 1 mL diluted bacteria, resulting in a colony count of less than 10 colonies, a 1 mL alcohol gel plus 1 mL diluted bacteria, resulting in a partial lawn of bacteria (colonies were too close to count appropriately), 1 mL diluted bacteria alone, resulting in a full lawn of bacteria (no distinguishable colonies), and an appropriate dilution of PEG-400 and HPβCD into 1 mL of alcohol gel plus 1 mL diluted bacteria, resulting in a lawn of bacteria. Plate area was then selected and the Image J colony counter was used to obtain colony counts (Size (pixels squared) 5-1000 and circularity 0.5-1).
# S. typhimurium TA98 = assay: Dose range finding colony forming assay, strain TA98 with metabolic activation; type: cell-based; conditions: positive control, 2 μg/plate
# Method: as §1, §2, §3
# S. typhimurium TA97a = assay: Dose range finding colony forming assay, strain TA97a with metabolic activation; type: cell-based; conditions: positive control, 2.5 μg/plate
# Method: as §1, §2, §3
# S. typhimurium TA1535 = assay: Dose range finding colony forming assay, strain TA1535 without metabolic activation; type: cell-based; conditions: positive control, 1 μg/plate
# Method: as §1, §2, §3
# [2] = system: Methicillin Resistant Staphylococcus aureus (MRSA USA 300); assay: Colony forming assay, spread plate, MRSA USA 300; type: cell-based; conditions: Tobramycin 600 μg/mL; compared to the untreated control; 24 h; FIGS. 6A-6B
# Method: A fresh culture of pathogenic isolate was used in these examples. The bacterial strains used were Methicillin Resistant Staphylococcus aureus (MRSA USA 300), Pseudomonas aeruginosa ATCC 27312, and Candida albicans ATCC 64550.
# FIG. 5 illustrates the spread plate method used in these examples. In sum, agar plates were made, bacteria were diluted to 10^6 or 10^8 CFU/mL, bacteria and drug were mixed together and then plated. Glass spreading beads were used because they give a better bacterial spread. Plates were incubated for 24 hrs then the colonies that formed were counted.
# Proliferating cultures of Methicillin Resistant Staphylococcus aureus (MRSA, USA 300) were used in a colony forming assay. Freeze-dried bacteria culture of MRSA was recovered by swabbing a 3-cm diameter growth area and resuspending it to obtain a final inoculum suspension of approximately 10^8 CFU/mL. The concentration was confirmed using historical optical density measurements. The total compound BM3103 was suspended in a 70% v/v alcohol gel formulation (Formulation A) before the introduction of bacteria, with the vehicle consisting of solely the 70% v/v alcohol gel. MRSA at 10^8 CFU/mL was challenged with equal parts of a high, medium, and low dose of BM3103, vehicle formulation, positive control (Tobramycin, 600 μg/mL), or untreated control (phosphate buffered saline). The inoculum was plated on Tryptic Soy Broth plates at 37° C. for 24 h. Plates were photographed and counted. The treatment for each experiment was done in triplicate, and the experiment was repeated three times, for a total of 9 plates per group.
# Colony counts for each treatment were tabulated and the Log of the colony forming units/mL (Log CFU/mL) was determined. The mean and standard deviation of the Log CFU/mL were calculated for each treatment. A one-way analysis of variance was performed at a 95% confidence interval.
# [3] = system: Methicillin Resistant Staphylococcus aureus (MRSA, USA 400); assay: Colony forming assay, 24 h plate assay, MRSA USA 400; type: cell-based; conditions: Tobramycin 600 μg/mL, compared to the vehicle control, FIG. 9
# Method: Proliferating cultures of Methicillin Resistant Staphylococcus aureus (MRSA, USA 400) were used in a colony forming assay. Frozen stock cultures of MRSA USA 400 were thawed and grown overnight in tryptic soy broth (TSB) with shaking at 37° C. The overnight culture (0.5-1.0 mL) was added to 100 mL TSB and grown at 37° C. with shaking and monitored for an optical density of 0.55-0.60 in order to obtain a final inoculum suspension of approximately 10^8 CFU/mL.
# BM3103 was suspended into a 70% v/v alcohol gel formulation to acquire the desired % w/v tested within the example. Each concentration was vortexed thoroughly until dissolved. Initial tested concentrations of BM3103 were 1, 0.5, and 0.1% w/v. These concentrations and the alcohol gel vehicle were mixed with equal parts of the 10^8 CFU/mL inoculum to obtain a final concentration of 0.5, 0.25, and 0.05% (22 mM, 11 mM, and 2 mM) BM3103. Tobramycin (600 μg/mL) served as the positive control. Vehicle and BM3103 formulations contained matching final concentration of 35% v/v alcohol.
# BM3103 was dissolved into Transcutol (diethylene glycol monoethyl ether) at 2.5% w/v and vortexed until dissolved. This concentration was then serial diluted to achieve the remaining concentrations tested. Before plating, 100 μL of the final inoculum (10^8 CFU/mL) was mixed with 20 μL TSB broth and 80 μL of BM3103 doses or vehicle. Tobramycin, 600 μg/mL, served as the positive control. The final plating concentrations for BM3103 were 1, 0.5, 0.25, and 0.1% w/v (44 mM, 22 mM, 11 mM, 4 mM) BM3103. Vehicle and BM3103 formulations contained matching final concentration of 40% v/v Transcutol.
# The above listed formulations combined with the MRSA inoculum were plated onto TSB agar plates. The plates were grown at 37° C. for 24 h, imaged, and the bacteria colonies were counted. The experiment was done in triplicate at each concentration level described above. Colony counts for each treatment were tabulated and the Log of the colony forming units/mL (Log CFU/mL) were determined. The mean and the standard error of the mean were calculated for each treatment.
structure (smiles),measurement,setting,value
"Oc1ccc(C#Cc2cc(O)cc(O)c2)cc1 [3,5,4′-trihydroxytolan]",Effectiveness against wild type E. Coli,wild type E. Coli,ineffective
"c1ccc2c(c1)cc1ccc3cccc4ccc2c1c34 [BAP_Moltox, Benzo(a) pyrene_Moltox, reference compound]",Colony forming units/plate,S. typhimurium TA100,806.0 colony forming units/plate
"Oc1ccc(C#Cc2ccc(C(F)(F)F)cc2)cc1 [BM3213, 4-hydroxy-4′-(trifluoro)methyltolan]",Inhibition of E. coli growth,"[1]; 2.23 mM, FIG. 3",very inhibitory to E. coli
same,Inhibition of E. coli growth,"[1]; concentrations 10 fold diluted from 2.23 mM, FIG. 3",less so
"COc1ccc(C#Cc2ccc(OC)c(OC)c2)cc1 [BM3303, 3,4,4′-trimethoxytolan]",Inhibition of E. coli growth,"[1]; 1.11 mM, FIG. 4",an inhibitor to E. coli
same,Dose dependence of inhibition of E. coli,[1]; FIG. 4,dose dependent inhibitory effects
same,Inhibition of E. coli growth,"[1]; concentrations 10-fold diluted from 1.11 mM, FIG. 4",less so
"Nc1ccc2cc3ccccc3cc2c1 [Compound 2A, 2-Aminoanthracene, reference compound]",Colony forming units/plate,S. typhimurium TA98,2315.0 colony forming units/plate
same,Colony forming units/plate,S. typhimurium TA97a,3241.3 colony forming units/plate
"[N-]=[N+]=[N-] [NaN3, Sodium Azide, reference compound]",Colony forming units/plate,S. typhimurium TA1535,714.7 colony forming units/plate
"NC[C@H]1O[C@H](O[C@H]2[C@H](O)[C@@H](O[C@H]3O[C@H](CO)[C@@H](O)[C@H](N)[C@H]3O)[C@H](N)C[C@@H]2N)[C@H](N)C[C@@H]1O [Tobramycin, reference compound]",Reduction of MRSA USA 300 counts,[2],6 fold
same,Reduction of MRSA USA 400 counts,[3],4 fold
